A word on the IC50: it is the concentration at which inhibition is half-maximal. Lower therefore signals greater potency. Broadly, the ED50 is the dose at which the effect has come halfway, by size or by number of responders.

Assay [1] addresses T1, human PKCζ (Homo sapiens, UniProt Q05513).
T1 sequence (Q05513 1-592): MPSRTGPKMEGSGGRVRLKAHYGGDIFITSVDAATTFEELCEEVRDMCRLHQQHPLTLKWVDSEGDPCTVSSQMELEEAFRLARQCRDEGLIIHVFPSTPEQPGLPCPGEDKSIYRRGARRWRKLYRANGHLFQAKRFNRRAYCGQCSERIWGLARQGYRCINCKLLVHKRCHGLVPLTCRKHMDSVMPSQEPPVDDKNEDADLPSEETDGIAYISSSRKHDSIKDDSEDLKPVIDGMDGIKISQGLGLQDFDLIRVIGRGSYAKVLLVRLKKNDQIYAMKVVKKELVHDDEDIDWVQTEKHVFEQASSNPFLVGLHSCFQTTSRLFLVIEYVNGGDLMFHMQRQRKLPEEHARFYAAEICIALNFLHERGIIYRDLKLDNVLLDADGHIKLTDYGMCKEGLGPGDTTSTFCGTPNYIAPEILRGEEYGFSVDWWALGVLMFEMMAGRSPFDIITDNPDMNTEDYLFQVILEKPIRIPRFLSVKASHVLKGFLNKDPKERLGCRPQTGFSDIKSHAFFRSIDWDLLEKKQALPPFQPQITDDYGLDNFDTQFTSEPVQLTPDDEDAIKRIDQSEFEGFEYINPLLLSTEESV
Kind of assay: PKC isoforms based HTRF KinEASE-STK assay, PKCζ. In kind it is biochemical. The following applies: 10 μM ATP in substrate mix, 70 min. From the text:
(§1) The purpose of this assay is to evaluate the inhibitory activity of compounds on various PKC isoforms. It has been reported that perturbations in vascular cell homeostasis caused by different PKC isoforms (PKC-α, β1/2, and PKC-δ) are linked to the development of pathologies affecting large vessel (atherosclerosis, cardiomyopathy) and small vessel (retinopathy, nephropathy, and neuropathy) complications. Geraldes, P. and King, G. L., “Activation of Protein Kinase C Isoforms and Its Impact on Diabetic Complications”, Cir.
(§2) Effects of a test compound on the kinase activity of PKCα, β2, δ, ε, ι, and ζ, are determined using a HTRF KINEASE™-STK assay kit (Cisbio) in accordance with the protocol provided by the vendor. It is a general method for measuring Serine/Threonine kinase activities using kinase substrates and a universal detection system. In the current protocol, biotinilated STK1provided in the assay kit is used as the substrate that can be phosphorylated by any PKC isoform. The HTRF KINEASE™-STK assay kit format involves the two steps (Enzymatic step and Detection step) described below. First, the kinase phosphorylates the substrate in the presence of ATP. Second, the detection reagents provided in the assay kit recognize the phosphorylated substrate.

Assay [2] concerns the target human PKCα (Homo sapiens, UniProt P17252). Kind of assay: PKC isoforms based HTRF KinEASE-STK assay, PKCα. The format is biochemical. The following applies: 50 μM ATP in substrate mix, 30 min.
Source text: as §1, §2
Background: Time-resolved FRET reads energy transfer from a long-lived donor to a nearby acceptor.

In assay [3] the test system is db/db mice. Kind of assay: Efficacy animal model of diabetic nephropathy (albuminuria, uninephrectomized db/db mice). In kind it is in vivo, mouse. The following applies: oral gavage twice a day. From the text: The purpose of this assay is to analyze compound efficacy in a mouse model of diabetic nephropathy. The earliest clinical manifestation of diabetic nephropathy is albuminuria, leakage of albumin in the urine. Because diabetic nephropathy can be present without any symptoms, early diagnosis is critical so that treatment can be started. The key test for early diagnosis of diabetic nephropathy involves checking for the presence of albuminuria. Thus, if a compound reduces albumin levels in the urine in a diabetic patient, it would likely indicate efficacy of the compound in the treatment of diabetic nephropathy. To model diabetic nephropathy, a combination of genetically driven type 2 diabetes and uninephrectomy is utilized. Six week-old db/db mice (genetic strain: C57 BL KsJ, ChemPartner, Shanghai) receive standard rodent chow and water ad libitum. The left kidney is removed under anesthesia with 0.6% sodium pentobarbital at 60 mg/kg body weight (10 μL/g i.p.). Seven days after surgery, urine is collected for 24 h in a metabolic cage to measure albuminuria levels and blood is collected by tail snip to determine glucose levels. For compound treatment, the animals are randomized based on 24-h albuminuria, blood glucose, and body weight. A test compound is dissolved in 4% DMSO (aqueous) and administered twice a day by oral gavage. […] During the treatment period, albuminuria is analyzed monthly. […]

For `C[C@@H]1CN(C(=O)c2cc(-c3c(F)cc(O)cc3F)cc3cnsc23)C[C@H](C)N1.Cl` [Example 2, 4-(7-{[(3R,5 S)-3,5-DIMETHYLPIPERAZIN-1-YL]CARBONYL}-1,2-BENZOTHIAZOL-5-YL)-3,5-DIFLUOROPHENOL HYDROCHLORIDE], the IC50 was roughly 15.5 µM in assay [1] and roughly 0.0166 µM in assay [2]. For the same molecule, the ED50 in assay [3] (Mus musculus, uninephrectomized db/db mice, read-out: ED50, reduction of albuminuria) was roughly 25.3 mg/kg. Besides, the “actual mean levels of albumin in the urine (collected during 24 hours)” value in assay [3] (db/db mice, dose of 30 mg/kg) worked out at 85.0 ± 6.9 µg.

Values taken from US20170246166A1, “1,2-BENZOTHIAZOLE COMPOUNDS FOR THE TREATMENT OF KIDNEY DISORDERS” (priority 2014, published 2017).
